Results taken from PMC10759735, “The diverse functions of Mu-class Glutathione S-transferase HrGSTm1 during the development of Hyalomma rufipes with a focus on the detoxification metabolism of cyhalothrin” (Parasites & Vectors, 2024).

Test system: T1, rHrGSTm1
T1 construct: gene HrGSTm1; full-length CDS (672-bp ORF); 223 aa in abstract, 233; recombinant 44 kDa, no tag removal described
Test: GSH conjugation, absorbance at […] nm, Michaelis-Menten fit
Assay type: biochemical, Hyalomma rufipes
Conditions: 5 mM GSH; CDNB varied 0.125-2 mM (printed unit μM lies far below this range, possibly meant mM); abstract calls glutathione the substrate

Q: For O=[N+]([O-])c1ccc(Cl)c([N+](=O)[O-])c1 [CDNB, 1-Chlom-2,4-Dinitrobenzene], which Km is on record?
A: 2.21 ± 0.76 µM
